Test results as given in ChEMBL document CHEMBL5360532, “Current scenario of quinolone hybrids with potential antibacterial activity against ESKAPE pathogens” (Eur J Med Chem, 2023).
≈ marks a conversion by molar mass, not a printed value.

Assays:
Format in all cases: functional
Escherichia coli = test: Antibacterial activity against Escherichia coli assessed as zone of inhibition at 50 mg/ml cup plate assay; conditions: read-out: IZ
[1] = test system: Mycobacterium tuberculosis; test: Potency index, ratio of ciprofloxacin MIC to test compound MIC for antimycobacterial activity against Mycobacterium tuberculosis H37Rv assessed as bacterial growth inhibition by LJ slant assay
[2] = test system: Mycobacterium tuberculosis; test: Antimycobacterial activity against extensive drug Mycobacterium tuberculosis assessed as bacterial growth inhibition by LJ slant assay
Staphylococcus aureus [3] = test: Antibacterial activity against Staphylococcus aureus assessed as zone of inhibition at 50 mg/ml cup plate assay; conditions: read-out: IZ
[4] = test system: Mycobacterium tuberculosis; test: Antimycobacterial activity against Mycobacterium tuberculosis H37Rv assessed as bacterial growth inhibition by LJ slant assay
[5] = test system: Mycobacterium tuberculosis; test: Antimycobacterial activity against multidrug Mycobacterium tuberculosis assessed as bacterial growth inhibition by LJ slant assay
Pseudomonas aeruginosa = test: Antibacterial activity against Pseudomonas aeruginosa assessed as bacterial growth inhibition by serial dilution method
Staphylococcus aureus [6] = test: Antibacterial activity against Staphylococcus aureus assessed as bacterial growth inhibition by serial dilution method
[7] = test system: Mycolicibacterium smegmatis; test: Antibacterial activity against Mycobacterium smegmatis assessed as bacterial growth inhibition by serial dilution method

Structure (SMILES) | zone of inhibition at 50000 µg/mL (Escherichia coli) | Ratio [1] | MIC [2] | zone of inhibition at 50000 µg/mL (Staphylococcus aureus [3]) | MIC [4] | MIC [5] | MIC (Pseudomonas aeruginosa) | MIC (Staphylococcus aureus [6]) | MIC [7]
O=c1c(-c2nnc(S)o2)cn(C2CC2)c2cc(N3CCNCC3)c(F)cc12 | 12 mm | >=32 | 0.063 µg/mL (≈ 0.163 µM) | 13 mm | 0.063 µg/mL (≈ 0.163 µM) | 0.063 µg/mL (≈ 0.163 µM) | – | – | –
COC(=O)c1ccc(NC(=O)COC(=O)c2ccncc2)cc1OCCC(=O)NC1CCN(c2c(F)cc3c(=O)c(C(=O)O)cn(C4CC4)c3c2Cl)C1 (centres undefined) | – | – | – | – | – | – | 0.125 µg/mL (≈ 0.167 µM) | 0.125 µg/mL (≈ 0.167 µM) | 0.125 µg/mL (≈ 0.167 µM)
